These results are taken from patent US6013795A, “Alpha-branched fluoroalkylcarbonyl fluorides and their derivatives” (3M Innovative Properties Company, priority 1996, dated 2000).

One data set deals with rat. As to the kind of experiment: exhaust gas monitoring of dosed rat in uptake desiccator chamber. As to conditions: 500 mg/kg. The class given is in vivo. Here is the method:
Additional biological testing of C7 F15 CF(CF3)COO^- NH4^+ in rats was conducted using the following test apparatus. An uptake desiccator jar chamber was designed with top and bottom portions, the top portion equipped with an inlet port, an outlet port, oxygen monitor and pressure gage. An oxygen gas tank supplied oxygen into the inlet port, and the oxygen level in the chamber was maintained at a normal ambient level as measured by the oxygen monitor and pressure gage. The outlet port was connected in series with a carbon dioxide scrubber and particulate filter, which in turn was connected to a loop containing a stainless steel bellows pump operating at about 2 L/min. Most of the gas in the loop was recycled into the inlet port, but about 100 mL/min was directed through a secondary loop to a gas chromatograph equipped with a 0.5 mL gas sampling loop.
A rat dosed at 500 mg/kg was placed in the bottom portion of the chamber, the top portion was attached, and the assembled chamber was placed in an ice-filled pan to allow for the condensation of water. The oxygen flow was started, and the exhaust gases were monitored for the presence of CF3 CF=CF(C6 F13) and C7 F15 CFHCF3, aqueous degradation products of C7 F15 CF(CF3)COOH, using known standards of this olefin and hydride in the gas chromatograph. […] After 24 minutes, one slight chromatographic peak was noted, corresponding to the monohydride. After 92 minutes, the peak became noticeably larger and a second peak formed, corresponding to the olefin.

Data set [1] is described as follows: surface tension of aqueous surfactant solutions and critical micelle concentration (K-12 Processor Tensiometer). As to conditions: carboxylate salts, deionized water; Table 5. The class given is physicochemical.
From the text: Critical Micelle Concentration (CMC): The critical micelle concentration is defined as the concentration at which further surface tension is no longer lowered with increasing levels of surfactant. […] Surface tension is then plotted vs. log concentration and the data points are connected. The resulting curve has a nearly horizontal flat portion at concentrations above the CMC and has a negative steep slope at concentrations below the CMC. The CMC is defined as the lowest surfactant concentration in the horizontal flat portion of the curve.
(§1) Then the critical micelle concentration (CMC) was determined for each surfactant.
as §1

Data set [2] is described as follows: emulsion polymerization of vinylidene fluoride and hexafluoropropylene with surfactant as emulsifier. An excerpt: The following procedure was used to evaluate C7 F15 CF(CF3)COO^- NH4^+ (from Ex. M1) as an emulsifier to copolymerize hexafluoropropylene (HFP) and vinylidene fluoride.
A 1 gallon, vertically agitated stainless steel reactor with pressure and temperature controls was evacuated and twice purged with nitrogen. Using an isolated vacuum, a solution comprised of 2 g of ammonium persulfate (initiator) and 6 g of dipotassium phosphate dissolved in 2800 g of deionized water was introduced into the reactor. The remaining vacuum on the reactor was vented with nitrogen, and the solution was degassed twice under agitation using alternate vacuum and nitrogen purges. […] The reactor was vented with nitrogen, the solution was agitated very briefly, and the reactor was evacuated of nitrogen and isolated. Then the reactor was vented with hexafluoropropylene monomer to a pressure of approximately 10 psig (1280 torr total pressure), and the temperature of the batch was raised to 72° C. with high agitation. Maintaining the temperature at 72° C., a monomer mixture of 60% (wt) of vinylidene fluoride and 40% (wt) hexafluoropropylene was fed from a tared gas cylinder into the head space of the reactor to maintain a reactor pressure of 130 psig (7480 total pressure). After feeding in about 1 kg of monomer blend (approximately 3.75 hours duration), the introduction of monomer was ceased, the reaction was allowed to cool to room temperature, and any residual unreacted monomer was vented.
The resulting latex polymer was drained from the reactor, and percent solids of the latex was determined to be 25% by weight as measured by drying 10 g of latex in a forced air oven for 16 hours at 105° C.
The reactor body was separated from the reactor head, and a visual inspection of the reactor was made to determine the amount of coagulated polymer in the reactor (the amount should be minimal in a good polymerization reaction). A qualitative rating was assessed, ranging from "none" to "little" to "some."
The latex stability was determined by half filling a 16 oz (450 mL) jar with latex and shaking several hours in the horizontal position, quantitatively rating the latex after shaking using a 3-point scale ranging from 0=very stable to 3=unstable.
Particle size in the latex was determined using 90° scattering on a Coulter sub-micron particle size analyzer.
Degree of foaming was rated using the following qualitative scale: 0=not foamy, 1=slightly foamy, 2=moderately foamy, and 3=very foamy.
In Example P2, the same experiment was run as in Example P1, except that the concentration of C7 F15 CF(CF3)COO^- NH4^+emulsifier was raised to 3500 ppm, the reaction time decreased from 3.75 to 3.5 hours, and the reaction temperature increased from 72° C. to 78° C.
In Comparative Examples P3-P6, the same experiment was run as in Example P1, except that C8 F17 SO2 N(C2 H5)CH2 COO^- K^+ (Fluorad™ FC-128 Fluorochemical Surfactant, available from 3M Company, St. Paul, Minn.), C7 F15 COO^- H4 N^+ (Fluorad™ FC-143 Fluorochemical Surfactant), and Surflon™ S111S Fluorochemical Surfactant (believed to be nominally telomer-based n-C9 F19 COO^- H4 N^+, commercially available from Asahi Glass Corp., Japan) were substituted for C7 F15 CF(CF3)COO^- H4 N^+ emulsifier.
In Comparative Example P7, the same experiment was run as in Example P1, except that no emulsifier was used.

In another data set the test system is rats. The experiment in a line: acute LD50, one-time feeding study of rats. Format: in vivo, rat. As to conditions: for toxicity rating: acute. Here is the method:
Acute LD50 measurements for a one-time feeding study of rats were determined over a 21 day period for both the α-branched perfluorocarboxylate salt, C7 F15 CF(CF3)COO^- NH4^+, and its straight chain isomer, CF3 (CF2)8 COO^- NH4^+.

A short description of data set [3]: thermal degradation of neat perfluorocarboxylate salts by thermogravimetric analysis. The class given is physicochemical. As to conditions: TGA 10° C./min, nitrogen. From the text: Thermal degradation measurements were made on a series of neat perfluorocarboxylate salts, including several α-branched open chain structures (Examples N2-N9), a primarily linear open chain structure (Example N10--Fluorad™ FC-143 Fluorochemical Surfactant, commercially available from 3M Company, St. Paul, Minn.), and a closed chain (i.e., cyclic) structure (Example N11- made by the electrochemical fluorination of benzoic acid and hydrolysis in the presence of KOH, as described in U.S. Pat. No. 2,567,011 (Diesslin et al.)).
The perfluorocarboxylate salts were tested using a Perkin-Elmer TGA 7 thermogravimetric analysis apparatus and a salt sample size of approximately 5 mg, a heating rate of 10° C./min, and a nitrogen gas flow rate of 40-45 mL/min. Using the TGA 7 software, the following temperatures were recorded: (1) the onset temperature of decomposition, (2) the temperature at which 50% of the sample weight was lost, and (3) the temperature at which 90% of the sample weight was lost.

Data set [4] can be described thus: degradation of aqueous salt solution stored at room temperature. The class given is physicochemical. As to conditions: same 1 year period. Here is the method:
The α-branched open chain ammonium salt compounds from Examples N3-N6 were dissolved in deionized water at a concentration of 5% by weight (0.5 g ammonium salt in 10 mL water) and were stored at room temperature.

For data set [5] the following is noted: Chem. Res. Toxicol. 1996, 9, 689-95; cited from earlier work.
Data set [6] can be described thus: hydrolytic stability of esters stirred with concentrated aqueous ammonium hydroxide. The class given is physicochemical. As to conditions: 2 days or comparable conditions. An excerpt: The acrylate and methacrylate esters from Examples D1-D11 were fully recoverable with essentially no degradation after being stirred with concentrated aqueous ammonium hydroxide for a period of 2 days.

Entries after “also recorded” stand apart in the source; their conditions may differ.

As for `O=C(O)C(F)(C(F)(F)F)C(F)(F)C(F)(F)C(F)(F)C(F)(F)C(F)(F)C(F)(F)C(F)(F)F` (stereo not shown) [Example M14, C7 F15 CF(CF3)COO^- H4 N^+], in the data set on rat, the “post-exposure observation of toxicity” value was “no evidence of toxicity (death) or evidence of wasting syndrome”, the “time to second peak (olefin) in exhaust gas; monohydride peak noticeably larger” value is 92 min and the “time to slight peak of monohydride in exhaust gas” value amounted to 24 min. For the same compound, the “olefin and monohydride peaks in exhaust gas” value with rat (after 217 minutes) is reported as “both peaks became significantly larger”. Moreover, the “olefin or hydride in exhaust gas” value with rat (initially) is “no olefin or hydride were detected”. Also, in data set [1], the CMC amounted to 2500 ppm and the “Surf. Tens. at the CMC” value amounted to 16.5 dynes/cm. For the same compound, the “Latex Stability” value in data set [2] (350 ppm emulsifier) was 2. For the same compound, the “Latex Stability” value in data set [2] (3500 ppm emulsifier) turned out to be 0. Moreover, the toxicity rating entry in the data set on rats (listed as C7 F15 CF(CF3)COO^- NH4^+) was “relatively low toxicity; also recorded: only slightly toxic”. In the data set with rats (one-time feeding), the “time after which rats began regaining weight” value was 3 days, the “time of deaths from toxic doses” value fell in the range of 2 to 3 days and the wasting syndrome result was “No wasting syndrome was noted”.

For the compound `O=C(O)C1(F)C(F)(F)C(F)(F)C(F)(F)C(F)(F)C1(F)F` [U.S. Pat. No. 2,567,011], in data set [3], the “Onset temperature of decomposition” value stood at 100 °C, the “Temperature for 50% loss” value turned out to be 110 °C and the “Temperature for 90% loss” value came out at 120 °C.

`O=C(O)C(F)(F)C(F)(F)C(F)(F)C(F)(F)C(F)(F)C(F)(F)C(F)(F)F` [FC-143, C7 F15 COO^- H4 N^+]: in data set [1], the CMC stood at 8000 ppm and the “Surf. Tens. at the CMC” value came to 21.5 dynes/cm. Further, in data set [2] (350 ppm emulsifier), the “Latex Stability” value is 2. Besides, the “degradation over 1 year (would show)” value in data set [4] is recorded as “no signs of degradation”.

Regarding `O=C(O)C(F)(F)C(F)(F)C(F)(F)C(F)(F)C(F)(F)C(F)(F)C(F)(F)C(F)(F)C(F)(F)F` [C9 F19 COO^- NH4^+, reference compound], the toxicity result in data set [5] is on record as “moderately toxic”. Moreover, in the data set with rats (LD50 based), the “toxicity relative to the α-branched isomer” value was “ca. 10 times”. Moreover, the toxicity rating entry with rats is “moderately toxic”. In addition, the wasting syndrome entry in the data set with rats (one-time feeding) is “Wasting syndrome was observed”.

With `C=CC(=O)OCCOC(=O)C(F)(F)C(F)(F)C(F)(F)C(F)(F)C(F)(F)C(F)(F)C(F)(F)F` [C7 F15 COOCH2 CH2 OCOCH=CH2], the hydrolytic stability entry in data set [6] is “readily hydrolyzed”.

`O=C(O)C(F)(C(F)(F)F)C(F)(F)C(F)(F)C(F)(F)C(F)(F)C(F)(F)F` (stereo not shown) [Example M28, C5 F11 CF(CF3)COO^- Na^+]: the “Temperature for 50% loss” value in data set [3] (listed as N8) came out at 250 °C.

Regarding `CCN(CC(=O)O)S(=O)(=O)C(F)(F)C(F)(F)C(F)(F)C(F)(F)C(F)(F)C(F)(F)C(F)(F)C(F)(F)F` [Fluorad ™ FC-128, C8 F17 SO2 N(C2 H5)CH2 COO^- K^+], the results for the “Latex Stability” value in data set [2] (100 ppm emulsifier) and in data set [2] (350 ppm emulsifier) were 2 and 0, respectively.
